Values belong to the compound of their own block, whether it stands above or below them.
Legend:
[1] = target: T1, Dual specificity mitogen-activated protein kinase kinase 6 (Homo sapiens) (UniProt P52564); experiment: Selectivity interaction (Ambit KINOMEscan and KiNATiv profiling in Jurkat cells) EUB0000090b MAP2K6; type: cell-based; conditions: at 1 µM
T1 sequence (whole entry): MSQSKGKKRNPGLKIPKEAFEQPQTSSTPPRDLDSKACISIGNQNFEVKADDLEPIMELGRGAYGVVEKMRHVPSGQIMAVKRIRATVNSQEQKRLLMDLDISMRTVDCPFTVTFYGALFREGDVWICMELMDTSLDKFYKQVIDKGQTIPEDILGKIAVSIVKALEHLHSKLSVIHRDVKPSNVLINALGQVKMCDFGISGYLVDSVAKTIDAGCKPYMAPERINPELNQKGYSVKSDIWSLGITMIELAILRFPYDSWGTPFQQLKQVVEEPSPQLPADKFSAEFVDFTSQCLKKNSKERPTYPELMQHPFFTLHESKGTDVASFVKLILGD

[2] = Selectivity interaction (Ambit KINOMEscan and KiNATiv profiling in Jurkat cells) EUB0000090b CDK2H; conditions: Selectivity number of off-targets 9; Selectivity number of targets 456; Source Knowledge https://www.nature.com/articles/nchembio.2166; at 1 µM
[3] = target: T1, Dual specificity mitogen-activated protein kinase kinase 6 (Homo sapiens); experiment: Selectivity interaction (KinomeScan (DiscoverX)) EUB0000618a MAP2K6; conditions: at 10 µM
[4] = target: Glycogen synthase kinase-3 alpha (Homo sapiens, UniProt P49840); experiment: Selectivity interaction (ActivX KiNativ screen (ex vivo kinase selectivity in human PBMCs)) EUB0001619a GSK3A; type: cell-based; conditions: PBMC, at 1 µM
Sequence of Glycogen synthase kinase-3 alpha (P49840 2-483 limits assumed): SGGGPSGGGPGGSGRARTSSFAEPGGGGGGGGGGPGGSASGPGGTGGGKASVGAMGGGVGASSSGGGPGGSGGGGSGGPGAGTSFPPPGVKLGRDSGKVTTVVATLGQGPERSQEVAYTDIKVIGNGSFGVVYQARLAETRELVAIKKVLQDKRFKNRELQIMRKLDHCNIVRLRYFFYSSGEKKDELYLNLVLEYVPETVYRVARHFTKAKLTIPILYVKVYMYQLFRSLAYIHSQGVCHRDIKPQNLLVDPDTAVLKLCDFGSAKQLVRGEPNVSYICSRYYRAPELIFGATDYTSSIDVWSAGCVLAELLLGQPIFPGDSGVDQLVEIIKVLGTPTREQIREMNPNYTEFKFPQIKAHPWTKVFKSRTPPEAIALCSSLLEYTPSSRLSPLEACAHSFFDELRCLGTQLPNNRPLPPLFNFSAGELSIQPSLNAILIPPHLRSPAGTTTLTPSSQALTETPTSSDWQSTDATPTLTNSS

[5] = target: Acylglycerol kinase, mitochondrial (Homo sapiens) (UniProt Q53H12); experiment: Selectivity interaction (Kinase panel (KiNativ target engagement assay in Jurkat cells)) EUB0001635a AGK; type: cell-based; conditions: Selectivity number of off-targets 0.0, Selectivity number of targets 233.0, Source Knowledge https://www.sciencedirect.com/science/article/pii/S2451945619300674?via%3Dihub, at 1 µM
Sequence of Acylglycerol kinase, mitochondrial (Homo sapiens) (Q53H12 whole entry, canonical isoform): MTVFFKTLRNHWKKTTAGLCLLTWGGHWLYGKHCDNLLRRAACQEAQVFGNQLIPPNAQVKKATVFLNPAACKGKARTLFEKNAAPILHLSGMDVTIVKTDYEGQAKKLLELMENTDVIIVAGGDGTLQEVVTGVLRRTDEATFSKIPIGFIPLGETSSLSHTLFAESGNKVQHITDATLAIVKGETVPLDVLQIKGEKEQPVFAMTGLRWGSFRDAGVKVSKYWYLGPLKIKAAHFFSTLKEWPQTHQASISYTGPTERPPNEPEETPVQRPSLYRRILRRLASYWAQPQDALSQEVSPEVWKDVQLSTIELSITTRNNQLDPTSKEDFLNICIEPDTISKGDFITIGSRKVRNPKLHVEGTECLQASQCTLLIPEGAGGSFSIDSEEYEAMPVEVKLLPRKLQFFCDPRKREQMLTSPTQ

[6] = target: Casein kinase I isoform delta (Homo sapiens, UniProt P48730); conditions: at 10 µM
Sequence of Casein kinase I isoform delta (P48730 whole entry, looked up, canonical isoform): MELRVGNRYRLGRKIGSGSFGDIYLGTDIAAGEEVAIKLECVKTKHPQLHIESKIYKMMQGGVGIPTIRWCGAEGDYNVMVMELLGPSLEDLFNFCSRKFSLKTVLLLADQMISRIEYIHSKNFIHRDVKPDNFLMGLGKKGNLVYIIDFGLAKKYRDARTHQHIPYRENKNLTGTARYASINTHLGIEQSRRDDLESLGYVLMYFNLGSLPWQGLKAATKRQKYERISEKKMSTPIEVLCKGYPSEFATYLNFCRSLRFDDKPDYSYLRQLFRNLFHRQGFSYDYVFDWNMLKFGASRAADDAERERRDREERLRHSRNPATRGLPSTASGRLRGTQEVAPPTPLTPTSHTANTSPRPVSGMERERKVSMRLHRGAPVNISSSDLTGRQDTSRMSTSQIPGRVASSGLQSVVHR

[7] = target: T2, Serine/threonine-protein kinase 17A (Homo sapiens) (UniProt Q9UEE5); experiment: Selectivity interaction (ProQinase) EUB0000171b STK17A
T2 sequence (whole entry): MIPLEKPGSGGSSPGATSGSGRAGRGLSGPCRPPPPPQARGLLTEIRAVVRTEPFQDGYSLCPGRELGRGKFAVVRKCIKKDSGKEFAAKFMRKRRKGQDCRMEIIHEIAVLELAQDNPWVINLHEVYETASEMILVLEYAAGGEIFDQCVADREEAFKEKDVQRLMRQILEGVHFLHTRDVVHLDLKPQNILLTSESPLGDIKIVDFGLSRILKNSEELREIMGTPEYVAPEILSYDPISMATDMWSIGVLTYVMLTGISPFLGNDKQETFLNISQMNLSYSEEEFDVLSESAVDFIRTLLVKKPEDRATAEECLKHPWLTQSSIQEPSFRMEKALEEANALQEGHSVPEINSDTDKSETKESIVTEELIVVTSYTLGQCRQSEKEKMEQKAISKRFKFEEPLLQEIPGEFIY

[8] = target: T3, Serine/threonine-protein kinase tousled-like 1 (Homo sapiens) (UniProt Q9UKI8); experiment: Selectivity interaction (ProQinase) EUB0000171b TLK1
T3 sequence (whole entry): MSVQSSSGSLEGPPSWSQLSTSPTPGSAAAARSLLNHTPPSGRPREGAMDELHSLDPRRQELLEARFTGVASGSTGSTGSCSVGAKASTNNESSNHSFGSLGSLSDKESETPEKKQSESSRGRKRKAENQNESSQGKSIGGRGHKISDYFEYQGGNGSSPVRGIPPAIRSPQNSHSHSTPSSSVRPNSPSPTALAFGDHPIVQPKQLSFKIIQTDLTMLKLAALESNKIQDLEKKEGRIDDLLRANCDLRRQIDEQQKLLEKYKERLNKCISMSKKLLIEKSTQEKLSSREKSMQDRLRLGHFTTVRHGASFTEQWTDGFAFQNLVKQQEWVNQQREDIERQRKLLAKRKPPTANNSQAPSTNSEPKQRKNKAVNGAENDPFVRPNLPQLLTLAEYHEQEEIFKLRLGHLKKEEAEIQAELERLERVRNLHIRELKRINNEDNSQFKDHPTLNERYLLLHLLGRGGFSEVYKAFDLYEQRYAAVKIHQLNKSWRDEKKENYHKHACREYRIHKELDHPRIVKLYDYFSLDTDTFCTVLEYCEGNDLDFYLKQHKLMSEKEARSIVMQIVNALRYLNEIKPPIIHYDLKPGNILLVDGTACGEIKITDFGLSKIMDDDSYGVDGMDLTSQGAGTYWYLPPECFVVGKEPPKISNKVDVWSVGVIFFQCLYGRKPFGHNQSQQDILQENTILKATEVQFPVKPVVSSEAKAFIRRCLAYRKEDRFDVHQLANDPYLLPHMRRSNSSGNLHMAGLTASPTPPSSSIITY

[9] = target: Serine/threonine-protein kinase/endoribonuclease IRE1 (Homo sapiens) (UniProt O75460); experiment: Selectivity interaction (KinomeScan (DiscoverX)) EUB0001049a ERN1; conditions: at 1 µM
Sequence of Serine/threonine-protein kinase/endoribonuclease IRE1 (Homo sapiens) (O75460 19-977 limits assumed): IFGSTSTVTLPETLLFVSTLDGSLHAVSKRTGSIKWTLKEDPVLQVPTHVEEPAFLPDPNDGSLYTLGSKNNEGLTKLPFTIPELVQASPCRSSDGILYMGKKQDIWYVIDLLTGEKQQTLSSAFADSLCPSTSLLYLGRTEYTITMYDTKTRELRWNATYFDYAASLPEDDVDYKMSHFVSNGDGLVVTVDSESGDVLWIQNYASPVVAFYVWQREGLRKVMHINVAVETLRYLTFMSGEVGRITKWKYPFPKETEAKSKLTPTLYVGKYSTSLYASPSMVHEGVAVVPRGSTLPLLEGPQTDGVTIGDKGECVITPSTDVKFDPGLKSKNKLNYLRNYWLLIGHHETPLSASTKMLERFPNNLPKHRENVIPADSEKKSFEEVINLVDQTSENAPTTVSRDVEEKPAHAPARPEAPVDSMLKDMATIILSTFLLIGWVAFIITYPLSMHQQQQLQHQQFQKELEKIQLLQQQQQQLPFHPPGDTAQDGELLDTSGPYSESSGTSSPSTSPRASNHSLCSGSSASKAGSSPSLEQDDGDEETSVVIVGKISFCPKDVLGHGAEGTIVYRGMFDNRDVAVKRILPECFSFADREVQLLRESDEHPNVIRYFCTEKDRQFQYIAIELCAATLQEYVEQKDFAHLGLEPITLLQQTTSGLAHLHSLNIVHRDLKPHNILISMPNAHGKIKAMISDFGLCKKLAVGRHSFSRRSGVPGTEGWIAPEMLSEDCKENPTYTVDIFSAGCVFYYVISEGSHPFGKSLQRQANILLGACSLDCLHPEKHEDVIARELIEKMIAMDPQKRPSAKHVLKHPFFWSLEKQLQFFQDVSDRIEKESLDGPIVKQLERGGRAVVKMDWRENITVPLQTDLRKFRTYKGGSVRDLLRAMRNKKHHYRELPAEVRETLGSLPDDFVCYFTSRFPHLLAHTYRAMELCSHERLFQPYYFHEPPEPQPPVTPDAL

Compound: CN(C)C/C=C/C(=O)Nc1ccc(C(=O)N2CCCC(Nc3ncc(Cl)c(-c4c[nH]c5ccccc45)n3)C2)cc1 (stereo unspecified)
% of control [1]: 78%
% of control [2]: 100%

Compound: O[C@H]1CC[C@H](Nc2ncc3nc(Nc4c(F)cc(F)cc4F)n([C@H]4CCOC4)c3n2)CC1
% of control [3]: 88%

Compound: N#Cc1cccc(-c2c[nH]c3ncnc(N4CCOCC4)c23)c1
% of inhibition [4]: 7%

Compound: C=CC(=O)Nc1ccc(C(=O)Nc2[nH]nc3c2CN(C(=O)N[C@H](CN(C)C)c2ccccc2)C3(C)C)cc1
% of engagement [5]: -3.9%

Compound: Cc1cc([C@@H](C)Nc2ccccc2C(=O)O)c2nc(N3CCOCC3)cc(=O)n2c1 [AZD-6482]
% of control [6]: 86%

% of control ([7]; at 1 µM): 78%
% of control ([7]; at 5 µM): 35%
% of control ([8]; at 1 µM): 97%
% of control ([8]; at 5 µM): 90%
Compound: C=CC(=O)Nc1cccc(C(=O)Nc2ccc(Nc3cc(-c4[nH]c(SC)nc4C)ccn3)cc2)c1

Compound: COc1cc(Nc2nc(C)cc(-c3cnn4nc(OC)ccc34)n2)cc(C(F)(F)F)c1
% of control [9]: 100%
